Source: patent publication US8906869B2 (University of South Florida, priority 2007, dated 2014)

Experiments:
[1] = test system: miR-214; assay: qRT-PCR of miR-214 expression after antisense 2'-O-methyl oligonucleotide transfection; format: cell-based, human; conditions: A2780CP cells, 150 pMol per well, 72 h transfection
Procedure: (§1) FIG. 4. […] (B) MTT assay. […] (C) Flow cytometry. Indicated cells were treated with cisplatin or DMSO for 12 h and the subG1 population was identified by flow cytometry.
Expression of miRNAs was also analysed by RNase protection or mirVana qRT-PCR miRNA detection assay. For RNase protection assay, enriched small RNA was purified using the miRVana miRNA isolation Kit (Ambion). […] Probe hybridization and RNase protection were then carried out using the mirVana™ miRNA detection kit (Ambion) according to manufacturer's instructions. After hybridization and RNase treatment, the double-strand products were resolved in a 15% polyacrylamide 8 M urea denaturing gel and visualized using phospho imaging and autoradiography. mirVanaqRT-PCR was performed according to the manufacturer's protocol (Ambion). PCR products were analyzed by electrophoresis, on a 7.5% polyacrylamide gel in 0.5×TBE and visualized by ethidium bromide staining.
2′-O-methyl (2-O-me) oligoribonucleotides were synthesized by Integrated DNA Technologies. […] […]-3′ (SEQ ID NO: 5) and 5′-[…]-3′ (SEQ ID NO: 6). 2′-O-me-scrambled miR (5′-[…]-3′) (SEQ ID NO: 7) was used as a control. Cells were grown in 6-well plate ([…]) for 24 hand transfected with 150 pMol of 2′-O-me oligoribonucleotides per well using Lipofectamine 2000. RNA and protein were extracted after 72 h transfection.

[2] = test system: PTEN; assay: Immunoblotting of PTEN protein in A2780CP cells after knockdown of miR-214; format: cell-based, human; conditions: 150 pM/well, 72 h
Procedure: (§2) PTEN mRNA level was measured by RT-PCR (panel 8). U6 (panel 7) and GAPDH (bottom panel) were used for controls. […] Anti-mi[…] and scramble 2'-O-methyl oligonucleotide were used as controls. After incubation of 72 h, cells were lysed and immunoblotted with indicated antibodies (C). […] Following 36 h incubation, cells were subjected to luciferase assay. The data are the means of three independent experiments, and error bars indicate standard deviations. (F) Representative tumor and normal tissue lysates were analyzed by Western blot with indicated antibodies (panels 1 and 2). […] U6 was used as a control (bottom panel). […] Cells were grown in 6-well plate ([…]) for 24 hand transfected with 150 pMol of 2'-O-me oligoribonucleotides per well using Lipofectamine 2000. RNA and protein were extracted after 72 h transfection. […] The cells transfected with pcDNA3.[…][…]-Togo vector alone and pcDNA3.[…][…]-Topo-miR-199a* were used as controls. […]). […] PTEN protein was examined in a same series of normal ovary and primary ovarian tumor specimens for expression of miRNAs (FIG. 2F).

[3] = test system: A2780CP cells; assay: MTT cell viability and flow cytometry apoptosis in A2780CP cells; format: cell-based, human
Procedure: as §1
The cells transfected with 2′-O-methyl-scramble-miR were used as control. […] Further, the cells were treated with cisplatin or vehicle DMSO.

[4] = test system: Akt; assay: Immunoblotting of phosphorylation of Akt and Akt substrates in A2780CP cells after knockdown of miR-214; format: cell-based, human; conditions: 150 pM/well, 72 h
Procedure: as §2

[5] = test system: PTEN; conditions: ovarian cancer, reference 25; cited from earlier work

Molecule | level of miR-214 [1] | protein level of PTEN [2] | sensitization to cisplatin-induced apoptosis ([3]; cisplatin 20 uM, MTT and flow cytometry) | reduction of cell survival ([3]; knockdown of miR-214 alone, cell viability analysis) | phosphorylation levels of Akt and Akt substrates GSK3β and p70S6K [4] | PTEN protein expression [5]
2′-O-methyl-anti-miR-214: antisense 2′-O-methyl oligoribonucleotide targeting miR-214, 5′-CUGCCUGUCUGUGCCUGCUGU-3′ (SEQ ID NO: 5) (all 2'-O-methyl, backbone not given here) | significantly decreased | increased the protein level of PTEN | considerably sensitized A2780CP cells to cisplatin-induced apoptosis | about 20% | decreased | –
Nc1ncn([C@H]2C[C@H](O)[C@@H](CO)O2)c(=O)n1 [5-aza-2′ deoxycytidine] | – | – | – | – | – | failed to restore PTEN protein expression
